From patent publication US12128173B2, “Dry powder drug delivery system and methods” (MannKind Corporation, priority 2012, dated 2024) come the findings set out here.

The nature of data set [1]: FDKP bioavailability versus intravenous bolus of radiolabeled FDKP. As to conditions: model analysis.
Data set [2] is described as follows: In vitro powder emptying and VMGD, DPI 2 vs MTDS (Example 7). Format: physicochemical. As to conditions: 4 kPa.
Source text: In vitro powder performance for these systems was compared for various parameter of inhaler performance. For DPI 2 a single discharge per cartridge was used as compared to two discharges per cartridge in the MEDTONE® system.
Particle sizing by laser diffraction and quantification of emitted mass as described above were used in these experiments. A laser diffraction instrument (Sympatec HELOS) was adapted with a novel pressurized inhaler chamber to facilitate analysis of powder plumes. MTDS cartridges were discharged twice per determination versus once with DPI 2.
A short description of data set [3]: VMGD and container emptying by laser diffraction, DPI 2 vs MEDTONE (Example 6). Format: physicochemical. As to conditions: SSA 55, 4 kPa.
Source text: Typically, the geometric size of the emitted powder includes a volumetric distribution characterized by the median particle size, VMGD.
Data set [4] in a line: Solubility of FDKP by pH. Format: physicochemical.
A short description of data set [5]: FDKP pharmacokinetics after inhalation, DPI 1 vs MEDTONE (Example 8). Format: in vivo, healthy volunteers. From the text: The MEDTONE® inhaler system was used for comparison. […] Powder used were crystalline powder formulations.
During an inhalation maneuver, the patient was instructed to maintain a nominal pressure differential of 4-6 kPa combined with a short inhalation of 3-4 seconds or a long inhalation of 6-7 seconds. To generate a “hard” inhalation, the subject provided a nominal inhalation time of about 6.5 seconds and a peak pressure of 7 kPa. Conversely, to generate an “easy” inhalation, the subject provided a nominal inhalation time of about 6.5 seconds and a peak pressure of 5 kPa. Coupled with the inhalation monitoring apparatus, gravimetric assessment of the powder mass discharged from the cartridge was performed. This enabled a linkage between inhalation maneuver during dosing, cartridge discharge mass and pharmacokinetic profile determinations for each subject.
The study was an open-label, crossover, 2-part study in healthy volunteers.
Part 2 was carried out as a 2-part, 2-way crossover study for evaluating the effect of flow rate (15 versus 30 LPM) and inhalation time (3 versus 6 seconds). For each parameter tested (i.e., flow rate, and inhalation time), ten subjects were crossed over for each parameter with 20 subjects total for all of the parameters. Pharmacokinetics of FDPK was assessed with each treatment from blood samples taken from the subjects.

The nature of data set [6]: Powder flowability: Hausner ratio, compressibility (Carr's) index, angle of repose, critical orifice. Format: physicochemical. An excerpt:
FDKP microparticles either unmodified or containing a drug, for example insulin, constitute highly cohesive powders.

A short description of data set [7]: O-series vs U-series inhaler: discharge and particle size of crystalline and amorphous powders (Example 14). Format: physicochemical. The note with it: fill 25 mg, 4 kPa; for X84 avg: in µm (unit assumed). The protocol:
These experiments were conducted to test various inhaler designs in trying to improve percent dose discharge or increase device emptying to acceptable ranges for certain types of powders used. […] In these experiments, therefore, two types of dry powder inhalers were designed and built. An O-series (FIGS. 49 and 50) dry powder inhaler wherein the inhaler comprises rigid conduits which generate a tumbling, recirculating action of an airflow through the powder container during an inhalation in an O-shape prior to the airflow exiting the container. A second inhaler or U-series was also designed and built for comparison wherein the dry powder inhaler comprised a rigid air conduit through the container substantially U-shaped and configured with a deflector so that in use an airflow entering the container redirects the airflow within the container void or space in a U-shape/semilunar path or downwardly prior to exiting the container. Powders tested were either crystalline or amorphous.
The rigid flow conduits as illustrated in FIGS. 49 and 51 can be adapted to any type of dry powder inhaler for delivering different types of powder compositions. In these experiments, crystalline and amorphous powders were tested with the two types of air flow conduits designed into the same type of inhalers, a single use disposable. […] Inhaler performance was tested and evaluated from measurements using various parameters, such as pressure differential, powder content prior to and after testing of various powders via a simulated single inhalation. The particle size distribution of the discharged powder plume for each inhaler used was also measured as described in Example 7 above.

Data set [8] is described as follows: Post prandial glucose excursions during meal challenges. As to conditions: DPI 2 vs MEDTONE, doses not titrated. Format: in vivo, healthy volunteers.

In the case of `O=C(O)/C=C/C(=O)NCCCCC1NC(=O)C(CCCCNC(=O)/C=C/C(=O)O)NC1=O` (stereo not drawn) [FDKP, 3,6-bis(N-fumaryl-4-aminobutyl)-2,5-diketopiperazine], the “% of the FDKP delivered into the systemic circulation” value came out at 64% in data set [1] (DPI 2, single inhalation, 6.7 mg total fill FDKP-insulin (FDKP about 6 mg)) and 46% in data set [1] (MEDTONE, two inhalations, FDKP-insulin formulation). For the same molecule, the “Ave. VMGD” value in data set [2] (DPI 2, fill 10 mg, single discharge) amounted to 6.84 μm; in data set [2] (MEDTONE (MTDS), fill 10 mg FDKP, two discharges), 21.21 μm. Also, the VMGD is 6.800 micron in data set [3] (DPI 2, 56% trans) and 21.200 micron in data set [3] (MEDTONE, 56% trans). Also, the values for the solubility entry in data set [4] (at neutral or basic pH) and in data set [4] (in acid) were “readily soluble” and “low solubility”, respectively. In data set [5] (DPI 1 vs MEDTONE), the “better delivery of FDKP into the systemic circulation than MEDTONE” value is listed as “about 30%”. Moreover, the “AVG mean AUC fdkp per emitted fdkp mass” value in data set [5] (Part 1, DPI 1, 10 mg, nominal time and inhalation effort) is listed as 3495 ng*min/mL*mg fdkp; in data set [5] (Part 1, MT (MEDTONE), 10 mg, nominal time and inhalation effort) it was 1934 ng*min/mL*mg fdkp; in data set [5] (Part 2, DPI 1, 10 mg, long inhalation time) it was 3289 ng*min/mL*mg fdkp; in data set [5] (Part 2, DPI 1, 10 mg, short inhalation time), 3310 ng*min/mL*mg fdkp. Also, the angle of repose in data set [6] was 40 °. For the same molecule, the X16 avg in data set [7] (Sample 1, O-series) was found to be 1.9 µm; in data set [7] (Sample 2, U-series), 2.76 µm. The X50 avg in data set [7] (Sample 1, O-series) was 6.86 μm; in data set [7] (Sample 2, U-series), 11.19 μm. The X84 avg was determined as 21.55 in data set [7] (Sample 1, O-series) and 36.51 in data set [7] (Sample 2, U-series).
Consider insulin, for which the “post prandial glucose excursions” value in data set [8] is reported as “generally comparable glucose excursions”.
